ChEMBL document CHEMBL1201862, “PubChem BioAssay data set” (2004)
The source made the active and inactive calls.

Key:
[1] = HIV-1 Vif–A3G interaction blockers – biochemical, TR-FRET, GST-Vif 1-94, biotin-A3G peptide, dose response retest, primary screen (AID 1117319); assay type: functional;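 note: TR-FRET signal of purified GST-Vif binding a biotinylated A3G peptide; inhibitors lower the FRET signal by blocking Vif and A3G binding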
[2] = viability loss in THP-1 monocytes – THP-1 cells, cytotoxicity control for Vif-APOBEC3G degradation inhibitor project, dose response (AID 1117359); assay type: functional; conditions: THP-1
[3] = tested on: Vero; assay: viability of Vero cells under compound – cytotoxicity control for flavivirus capping enzyme inhibitors (AID 588742); assay type: functional; conditions: Chlorocebus sabaeus
[4] = biological target: Protein-tyrosine kinase 2-beta (Homo sapiens, UniProt Q14289);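 note: potency of inhibitors of PYK2 kinase phosphorylation of poly-GT substrate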
Chain of Protein-tyrosine kinase 2-beta (Q14289 whole entry): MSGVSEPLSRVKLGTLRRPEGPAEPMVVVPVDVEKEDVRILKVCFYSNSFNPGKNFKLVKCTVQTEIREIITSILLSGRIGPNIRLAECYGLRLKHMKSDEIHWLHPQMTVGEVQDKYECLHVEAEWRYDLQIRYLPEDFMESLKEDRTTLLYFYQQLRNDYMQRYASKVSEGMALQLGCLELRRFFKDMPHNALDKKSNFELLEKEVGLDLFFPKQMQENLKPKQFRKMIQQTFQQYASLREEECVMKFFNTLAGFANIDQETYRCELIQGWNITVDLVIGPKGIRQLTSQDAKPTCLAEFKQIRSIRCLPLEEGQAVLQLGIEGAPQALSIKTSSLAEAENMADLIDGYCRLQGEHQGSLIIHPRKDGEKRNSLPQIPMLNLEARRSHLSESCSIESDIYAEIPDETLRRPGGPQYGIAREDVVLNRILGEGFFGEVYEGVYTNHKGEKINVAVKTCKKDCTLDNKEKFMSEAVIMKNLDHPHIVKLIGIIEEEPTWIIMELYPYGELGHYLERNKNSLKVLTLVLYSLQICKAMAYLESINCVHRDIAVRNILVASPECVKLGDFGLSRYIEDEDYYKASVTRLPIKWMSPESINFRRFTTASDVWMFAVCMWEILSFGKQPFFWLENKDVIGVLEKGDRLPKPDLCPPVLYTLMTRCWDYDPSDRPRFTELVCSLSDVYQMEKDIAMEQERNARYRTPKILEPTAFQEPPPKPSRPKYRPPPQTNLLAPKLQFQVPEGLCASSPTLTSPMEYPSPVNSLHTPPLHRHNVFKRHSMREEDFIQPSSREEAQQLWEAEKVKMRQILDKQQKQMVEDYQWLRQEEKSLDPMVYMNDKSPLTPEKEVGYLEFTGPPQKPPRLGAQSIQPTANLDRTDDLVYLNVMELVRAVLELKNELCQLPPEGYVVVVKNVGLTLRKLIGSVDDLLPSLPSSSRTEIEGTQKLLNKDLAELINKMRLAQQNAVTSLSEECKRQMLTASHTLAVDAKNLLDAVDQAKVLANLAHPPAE

[5] = biological target: Cytochrome P450 2C9 (Homo sapiens, UniProt P11712)
Chain of Cytochrome P450 2C9 (P11712 whole entry, the tested form may be a part): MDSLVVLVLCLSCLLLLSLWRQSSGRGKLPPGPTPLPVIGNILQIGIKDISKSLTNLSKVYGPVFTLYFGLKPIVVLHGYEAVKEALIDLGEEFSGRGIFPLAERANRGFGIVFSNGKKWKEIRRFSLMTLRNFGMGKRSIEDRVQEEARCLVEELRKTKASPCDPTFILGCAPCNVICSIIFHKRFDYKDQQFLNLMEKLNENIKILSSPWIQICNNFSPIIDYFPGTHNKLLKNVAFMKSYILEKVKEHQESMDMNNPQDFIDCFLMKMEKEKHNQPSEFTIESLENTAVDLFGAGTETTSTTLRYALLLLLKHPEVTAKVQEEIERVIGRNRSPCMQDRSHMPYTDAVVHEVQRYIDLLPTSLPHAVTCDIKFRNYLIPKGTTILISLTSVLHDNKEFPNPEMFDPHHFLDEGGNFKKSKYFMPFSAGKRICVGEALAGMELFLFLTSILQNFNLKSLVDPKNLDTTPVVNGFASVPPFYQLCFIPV

[6] = biological target: Disintegrin and metalloproteinase domain-containing protein 17 (Homo sapiens, UniProt P78536); assay: inhibition of ADAM17 substrate cleavage – biochemical, quenched FRET substrate, counter-screen for ADAM10 exosite inhibitor project, dose response (AID 743253)
Chain of Disintegrin and metalloproteinase domain-containing protein 17 (P78536 whole entry, the tested form may be a part): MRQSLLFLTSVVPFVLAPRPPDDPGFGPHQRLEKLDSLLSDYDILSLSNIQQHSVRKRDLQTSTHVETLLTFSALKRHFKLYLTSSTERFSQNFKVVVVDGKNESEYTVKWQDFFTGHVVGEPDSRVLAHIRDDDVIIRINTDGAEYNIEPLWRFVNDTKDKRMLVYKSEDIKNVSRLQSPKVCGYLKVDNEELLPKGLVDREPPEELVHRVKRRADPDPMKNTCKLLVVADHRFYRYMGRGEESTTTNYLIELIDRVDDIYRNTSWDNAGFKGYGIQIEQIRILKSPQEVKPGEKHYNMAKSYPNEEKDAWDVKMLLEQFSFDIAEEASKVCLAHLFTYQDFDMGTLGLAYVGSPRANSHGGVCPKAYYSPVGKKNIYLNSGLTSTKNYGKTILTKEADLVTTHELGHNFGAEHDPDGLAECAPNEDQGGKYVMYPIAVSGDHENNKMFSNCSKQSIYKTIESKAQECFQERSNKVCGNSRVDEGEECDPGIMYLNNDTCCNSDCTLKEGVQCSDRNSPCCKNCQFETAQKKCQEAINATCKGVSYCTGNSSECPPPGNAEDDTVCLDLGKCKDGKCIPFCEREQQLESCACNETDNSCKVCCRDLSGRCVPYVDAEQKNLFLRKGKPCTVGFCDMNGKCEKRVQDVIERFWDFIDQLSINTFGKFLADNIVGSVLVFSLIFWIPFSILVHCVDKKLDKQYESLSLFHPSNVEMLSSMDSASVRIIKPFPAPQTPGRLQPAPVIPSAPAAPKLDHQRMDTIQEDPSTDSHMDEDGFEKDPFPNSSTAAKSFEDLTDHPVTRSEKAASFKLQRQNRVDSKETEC

[7] = biological target: Cytochrome P450 2D6 (Homo sapiens, UniProt P10635);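 note: CYP2D6 member of a cytochrome P450 panel assay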
Chain of Cytochrome P450 2D6 (P10635 whole entry): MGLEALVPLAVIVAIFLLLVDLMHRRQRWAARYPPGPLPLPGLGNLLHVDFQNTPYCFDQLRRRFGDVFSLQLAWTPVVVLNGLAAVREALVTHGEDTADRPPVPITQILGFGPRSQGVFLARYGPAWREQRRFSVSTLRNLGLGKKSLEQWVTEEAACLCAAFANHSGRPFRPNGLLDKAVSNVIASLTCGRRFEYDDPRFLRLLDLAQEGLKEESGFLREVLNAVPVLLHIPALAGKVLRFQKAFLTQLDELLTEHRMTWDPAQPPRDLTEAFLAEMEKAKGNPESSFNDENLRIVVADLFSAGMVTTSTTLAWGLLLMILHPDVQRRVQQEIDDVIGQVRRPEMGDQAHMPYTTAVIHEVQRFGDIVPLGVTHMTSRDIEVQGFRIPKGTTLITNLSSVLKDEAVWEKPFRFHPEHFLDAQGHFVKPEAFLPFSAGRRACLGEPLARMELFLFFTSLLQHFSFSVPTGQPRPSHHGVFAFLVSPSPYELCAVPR

[8] = Luminescence Cell-Based Dose Response to Identify Activators of Luciferase Translation or Activity in H4-C Neuroglioblastoma Cells. [Related pubchem assays: 1829 (Project Summary), 1814 (Primary HTS)]; assay type: functional
[9] = Luminescence Cell-Based Dose Response to Identify Activators of 5'UTR Stem-Loop Driven Prion Protein mRNA Translation in H4-C Neuroglioblastoma Cells. [Related pubchem assays: 1829 (Project Summary), 1814 (Primary HTS)]; assay type: functional
[10] = tested on: H4; assay: Luminescence Cell-Based Dose Response HTS to Identify Activators of 5'UTR Stem-Loop Driven Prion Protein mRNA Translation in H4 Neuroglioblastoma Cells. [Related pubchem assays: 1829 (Project Summary), 1814 (Primary HTS)]; assay type: functional; conditions: Homo sapiens
[11] = Luminescence Cell-Based Dose Confirmation to Identify Activators of 5'UTR Stem-Loop Driven Alpha-Synuclein mRNA Translation in H4 Neuroglioblastoma Cells. [Related pubchem assays: 1829 (Project Summary), 1814 (Primary HTS)]; assay type: functional
[12] = Luminescence Cell-Based Dose Confirmation HTS to Identify Activators of 5'UTR Stem-Loop Driven Alpha-Synuclein mRNA Translation in H4 Neuroglioblastoma Cells. [Related pubchem assays: 1829 (Project Summary), 1814 (Primary HTS)]; assay type: functional
[13] = Luminescence Cell-Based Dose Response HTS to Identify Activators of Luciferase Translation or Activity in H4 […] Cells. [Related pubchem assays: 1829 (Project Summary), 1814 (Primary HTS)]; assay type: functional
[14] = HEK293 Cytotoxicity Assay Measured in Cell-Based System Using Plate Reader - 7071-01_Inhibitor_Dose_CherryPick_Activity_Set2.; assay type: functional
[15] = tested on: HEK293; assay: viability loss in HEK293T cells – cell-based, ATP luminescence, cherry-pick samples, cytotoxicity control, dose response (AID 687005); assay type: functional; conditions: Homo sapiens;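 note: cells exposed to compound for 48 hours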
[16] = biological target: Kallikrein-7 (Homo sapiens, UniProt P49862); assay: Fluorescence Intensity-based biochemical primary high throughput dose response assay to identify activators of kallikrein-7 (K7) zymogen.
Chain of Kallikrein-7 (P49862 whole entry): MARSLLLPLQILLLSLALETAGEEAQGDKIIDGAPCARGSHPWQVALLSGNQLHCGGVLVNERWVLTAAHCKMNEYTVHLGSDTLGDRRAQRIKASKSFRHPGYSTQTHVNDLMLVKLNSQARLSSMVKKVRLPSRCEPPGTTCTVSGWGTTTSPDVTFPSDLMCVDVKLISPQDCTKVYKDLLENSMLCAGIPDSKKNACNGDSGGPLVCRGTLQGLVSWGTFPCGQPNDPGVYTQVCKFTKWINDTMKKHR

[17] = blockers of bursicon-stimulated LGR2 cAMP reporter – cell-based, HEK293, CRE-luciferase reporter, cherry pick, set 2, dose response (AID 743343); assay type: functional;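 note: transfected cells were stimulated with diluted bursicon conditioned medium after compound addition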
[18] = blockade of melanocortin 4 receptor signaling – cell-based, plate reader, cherry pick, counter-screen for LGR2 antagonist project, dose response (AID 743444); assay type: functional;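 note: transfected HEK 293 cells stimulated with alpha-MSH peptide; potency of inhibitors of the alpha-MSH evoked signal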
[19] = A549 cell cytotoxicity, dose response, cytotoxicity control, plate reader, cherry-pick, antagonist series (AID 743412); assay type: functional, cell-based
[20] = biological target: Cytochrome P450 3A4 (Homo sapiens, UniProt P08684); conditions: Potency;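 note: confirmatory qHTS run detecting inhibitors and substrates of CYP3A4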
Chain of Cytochrome P450 3A4 (P08684 whole entry): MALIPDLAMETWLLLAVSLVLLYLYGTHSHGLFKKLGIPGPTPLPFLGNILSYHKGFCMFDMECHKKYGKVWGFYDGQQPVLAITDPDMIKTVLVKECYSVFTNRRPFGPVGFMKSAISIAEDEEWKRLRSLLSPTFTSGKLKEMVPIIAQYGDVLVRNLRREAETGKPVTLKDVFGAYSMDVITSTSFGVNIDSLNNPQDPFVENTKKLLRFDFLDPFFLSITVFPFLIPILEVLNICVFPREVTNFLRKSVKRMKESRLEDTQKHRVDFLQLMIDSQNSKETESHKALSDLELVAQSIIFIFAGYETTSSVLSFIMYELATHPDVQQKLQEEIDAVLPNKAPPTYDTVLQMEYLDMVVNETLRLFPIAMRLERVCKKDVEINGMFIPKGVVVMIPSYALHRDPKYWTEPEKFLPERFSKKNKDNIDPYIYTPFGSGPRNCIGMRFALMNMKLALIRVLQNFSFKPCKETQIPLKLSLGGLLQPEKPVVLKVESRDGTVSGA

[21] = biological target: T1, Histone-lysine N-methyltransferase NSD2 (Homo sapiens, UniProt O96028); assay type: biochemical
T1 sequence (O96028 whole entry): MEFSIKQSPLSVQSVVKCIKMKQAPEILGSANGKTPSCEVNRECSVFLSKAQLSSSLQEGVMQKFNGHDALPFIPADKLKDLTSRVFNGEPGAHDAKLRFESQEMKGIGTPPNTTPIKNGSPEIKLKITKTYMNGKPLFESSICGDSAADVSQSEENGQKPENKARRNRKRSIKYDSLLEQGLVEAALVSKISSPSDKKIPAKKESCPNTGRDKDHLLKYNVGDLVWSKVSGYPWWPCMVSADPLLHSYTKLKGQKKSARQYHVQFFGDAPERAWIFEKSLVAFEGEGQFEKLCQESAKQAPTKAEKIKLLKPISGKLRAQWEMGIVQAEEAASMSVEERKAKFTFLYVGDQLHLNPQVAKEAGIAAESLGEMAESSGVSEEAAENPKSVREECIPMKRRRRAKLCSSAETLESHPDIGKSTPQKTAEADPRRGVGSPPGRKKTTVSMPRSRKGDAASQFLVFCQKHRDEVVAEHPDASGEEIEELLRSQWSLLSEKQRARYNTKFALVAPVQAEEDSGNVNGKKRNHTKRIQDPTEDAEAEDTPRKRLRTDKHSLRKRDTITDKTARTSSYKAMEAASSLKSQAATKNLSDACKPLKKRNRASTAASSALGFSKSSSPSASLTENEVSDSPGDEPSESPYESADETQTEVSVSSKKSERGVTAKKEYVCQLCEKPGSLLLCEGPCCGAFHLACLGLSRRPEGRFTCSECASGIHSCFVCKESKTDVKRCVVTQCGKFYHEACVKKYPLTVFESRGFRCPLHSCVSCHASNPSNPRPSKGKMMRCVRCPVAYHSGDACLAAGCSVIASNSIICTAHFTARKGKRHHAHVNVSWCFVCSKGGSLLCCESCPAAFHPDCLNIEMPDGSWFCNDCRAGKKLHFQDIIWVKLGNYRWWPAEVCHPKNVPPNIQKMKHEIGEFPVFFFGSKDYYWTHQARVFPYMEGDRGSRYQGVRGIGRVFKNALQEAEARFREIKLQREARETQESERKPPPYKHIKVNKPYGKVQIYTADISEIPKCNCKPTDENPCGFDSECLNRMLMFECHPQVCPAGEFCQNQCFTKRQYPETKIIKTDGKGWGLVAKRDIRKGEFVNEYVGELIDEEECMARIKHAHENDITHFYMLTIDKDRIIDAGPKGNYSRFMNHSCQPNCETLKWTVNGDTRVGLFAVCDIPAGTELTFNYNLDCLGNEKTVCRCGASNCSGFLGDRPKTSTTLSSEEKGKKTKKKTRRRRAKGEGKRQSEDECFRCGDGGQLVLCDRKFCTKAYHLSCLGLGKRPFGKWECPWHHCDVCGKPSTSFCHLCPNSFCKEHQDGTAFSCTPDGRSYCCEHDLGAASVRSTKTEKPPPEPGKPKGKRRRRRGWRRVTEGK

[22] = biological target: T2, RNA-binding protein pos-1 (Caenorhabditis elegans, UniProt G5EF15); assay: disruptors of C. elegans POS-1 RNA interaction – biochemical, fluorescence polarization, dose response (AID 1964);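 note: purified POS-1 fused to maltose binding protein made in E. coli; potency of compounds blocking POS-1 binding to fluorescent RNA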
T2 sequence (G5EF15 whole entry): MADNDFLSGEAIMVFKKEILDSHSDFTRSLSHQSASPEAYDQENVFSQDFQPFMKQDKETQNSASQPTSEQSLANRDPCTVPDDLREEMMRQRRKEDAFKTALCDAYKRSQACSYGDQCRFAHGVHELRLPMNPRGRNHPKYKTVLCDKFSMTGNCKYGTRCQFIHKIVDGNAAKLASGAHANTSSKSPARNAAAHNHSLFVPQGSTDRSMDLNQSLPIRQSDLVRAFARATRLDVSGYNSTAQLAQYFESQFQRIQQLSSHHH

[23] = biological target: T3, Zinc finger protein mex-5 (Caenorhabditis elegans, UniProt Q9XUB2); assay: potency of MEX-5 RNA-binding blockers – biochemical, C. elegans, fluorescence polarization, dose response (AID 1960)
T3 sequence (Q9XUB2 whole entry): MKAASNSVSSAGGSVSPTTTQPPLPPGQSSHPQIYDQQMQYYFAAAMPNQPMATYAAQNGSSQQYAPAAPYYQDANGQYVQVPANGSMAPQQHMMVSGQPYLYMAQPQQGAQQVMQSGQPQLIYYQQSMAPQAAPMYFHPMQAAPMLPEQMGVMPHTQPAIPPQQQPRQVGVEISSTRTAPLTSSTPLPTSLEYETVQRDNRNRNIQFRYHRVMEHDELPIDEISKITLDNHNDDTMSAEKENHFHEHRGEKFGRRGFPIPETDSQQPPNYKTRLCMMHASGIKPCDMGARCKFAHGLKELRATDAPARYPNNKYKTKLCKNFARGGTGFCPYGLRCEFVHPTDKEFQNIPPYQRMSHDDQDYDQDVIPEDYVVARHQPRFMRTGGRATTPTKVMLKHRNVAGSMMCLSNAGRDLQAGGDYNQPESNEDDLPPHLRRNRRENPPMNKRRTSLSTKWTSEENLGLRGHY

With CNc1sc(C(=O)c2cccs2)c(N)c1-c1nc2ccccc2s1 the IC50 [1] was > 100 µM (active), the CC50 [2] was 19.1 µM (active) and the CC50 [3] was > 40 µM (active).
In the case of CCOC(=O)C1=C(c2ccccc2)OC(N)=C(C#N)C1c1cccs1 (centres undefined), the IC50 [4] is reported as > 69.5 µM (not active).
With COc1cc(/C=N/O)cc(Br)c1OCc1ccc(Cl)cc1 the AC50 [5] was “inconclusive”, the IC50 [6] was > 69.5 µM (inactive) and the AC50 [7] was 17.8 µM (inconclusive).
For CC(C)C1Oc2ccccc2C(=O)N(CC(=O)c2ccc3c(c2)OCCO3)C1=O (centres undefined), the EC50 [8] was 0.447 µM (active), the EC50 [9] was 0.33 µM (active) and the EC50 [10] was < 0.1 µM (active). The EC50 [11] was 0.425 µM (active), the EC50 [12] was 0.131 µM (active) and the EC50 [13] was < 0.1 µM (active).
In the case of C[C@@H]1CN([C@@H](C)CO)S(=O)(=O)c2ccc(C3=CCCC3)cc2O[C@@H]1CN(C)Cc1ccccc1F, the AC50 [14] is reported as 23.9 µM (active) and the AC50 [15] is reported as 23.9 µM (active).
In the case of COCCNC(=O)C[C@@H]1CC[C@H]2[C@@H](COC[C@H](O)CN2Cc2cccc(-c3ccncc3)c2)O1, the AC50 [14] is reported as 32.6 µM (active) and the AC50 [15] is reported as 32.6 µM (active).
For CNc1cncc(-c2ccc(OC)cc2)n1, the EC50 [16] was > 69.5 µM (inactive).
With Cc1ccccc1C(=O)Nc1ccc2c(c1)OCCO2 the AC50 [17] was 10.5 µM (active), the AC50 [18] was 11.1 µM (active) and the AC50 [19] was > 52 µM (inactive).
With O=[N+]([O-])c1ccc(CNc2ccc(F)cc2)s1 the IC50 [1] was > 100 µM (active) and the CC50 [2] was > 40 µM (active).
In the case of COc1ccc(-c2oc3cc(O[C@@H]4OC(CO)C(O)C(O)C4O)c(OC)c(O)c3c(=O)c2OC)cc1O (some centres undefined), the AC50 [20] is reported as 25.1 µM (inconclusive).
With C=C1C(=O)O[C@@H]2C3OC3(C)CC/C=C(\C)CC[C@@H]12 (some centres undefined) the AC50 [20] was 31.6 µM (inconclusive).
For C[C@H](O)[C@@H]1C(=O)N2CCc3c([nH]c4ccccc34)[C@@H]2C[C@@H]1N(C)C(=O)c1cc(Cl)cc(Cl)c1, the EC50 [16] was > 23.2 µM (inactive).
For N#CC(C#N)=Cc1cccn1-c1ccc(C(=O)O)cc1, the AC50 [21] was > 20 µM (inactive), the EC50 [22] was > 300 µM (not active) and the EC50 [23] was 160 µM (active).
